Measurements as given in patent US6235493A, “Amino acid substituted-cresyl violet, synthetic fluorogenic substrates for the analysis of agents in individual in vivo cells or tissue” (priority 1998, dated 2001).
Blank lines part the entries; values can stand above or below the molecule they belong to.

Key:
[1] = test system: dipeptidyl peptidase IV (DPPIV); test: DPPIV activity in membrane fractions of hepatocytes (fluorometry); format: biochemical, rat; details: membrane fractions of the same hepatocyte suspensions
Method: Hepatocytes were isolated by collagenase perfusion of livers of male Wistar rats (200-250 g; HSD Animal Farm, Zeist, The Netherlands) after 24 h of starvation as described previously (30). The animals were exposed to a controlled dark-light cycle (light: 7:00 a.m.-7:00 p.m.) throughout the acclimatization period of at least 1 week. Before starvation, animals had free access to food (standard chow diet; Hope Farms, Woerden, The Netherlands) and water. The animals had always free access to water. During operation, the animals were under Nembutal anaesthesia. Animal care was performed according to the guidelines of the University of Amsterdam. […]
DPPIV activity was determined in hepatocytes using 6 approaches. Activity was determined in living hepatocytes with confocal scanning laser microscopy, image processing and analysis, flow cytometry, and fluorometry. […] Excitation was performed at 568 nm and fluorescence was captured at >595 nm. […] Images in the X-Y plane were recorded with intervals of 0.5 μm in the Z direction. […] Images were recorded din a 512×512 pixel format. […]
Calibration was performed by measuring fluorescence of a series of solutions of 0-10 μM cresyl violet in Krebs-Henseleit medium. These solutions were also used to test the properties of cresyl violet for quantitative purposes. The depth of the incubation chamber was 24 μm and the size of the area measured 240×170 μm. […]

[2] = target: T1, dipeptidyl peptidase IV (DPPIV) (CD26) (Rattus norvegicus, UniProt P14740); test: cell-based; format: cell-based; details: for mode of inhibition of DPPIV: individual living rat hepatocytes, image analysis
T1 construct: individual freshly isolated living rat hepatocytes; endogenous in cells; host or cells: hepatocytes freshly isolated from livers of male Wistar rats
T1 sequence (P14740 whole entry): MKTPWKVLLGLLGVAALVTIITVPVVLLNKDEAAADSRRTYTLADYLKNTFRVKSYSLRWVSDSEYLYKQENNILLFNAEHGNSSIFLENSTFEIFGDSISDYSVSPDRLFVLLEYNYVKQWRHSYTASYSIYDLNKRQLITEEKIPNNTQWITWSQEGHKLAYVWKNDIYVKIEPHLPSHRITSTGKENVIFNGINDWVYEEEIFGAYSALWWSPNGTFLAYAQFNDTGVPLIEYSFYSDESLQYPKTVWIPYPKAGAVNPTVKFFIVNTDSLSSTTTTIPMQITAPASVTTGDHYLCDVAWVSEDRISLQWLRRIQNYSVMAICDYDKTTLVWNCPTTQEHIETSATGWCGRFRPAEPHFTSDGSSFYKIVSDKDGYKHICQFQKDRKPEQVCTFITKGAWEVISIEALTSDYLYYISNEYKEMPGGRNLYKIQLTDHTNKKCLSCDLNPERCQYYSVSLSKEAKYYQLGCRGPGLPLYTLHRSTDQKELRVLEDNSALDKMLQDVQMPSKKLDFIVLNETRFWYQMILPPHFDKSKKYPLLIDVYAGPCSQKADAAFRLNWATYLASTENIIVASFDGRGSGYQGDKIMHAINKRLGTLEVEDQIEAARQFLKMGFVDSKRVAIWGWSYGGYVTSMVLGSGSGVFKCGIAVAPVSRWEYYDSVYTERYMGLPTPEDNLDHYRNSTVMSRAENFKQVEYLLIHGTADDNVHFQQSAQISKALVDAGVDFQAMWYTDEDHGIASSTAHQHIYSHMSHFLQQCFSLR
Method: Hepatocytes were isolated by collagenase perfusion of livers of male Wistar rats (200-250 g; HSD Animal Farm, Zeist, The Netherlands) after 24 h of starvation as described previously (30). The animals were exposed to a controlled dark-light cycle (light: 7:00 a.m.-7:00 p.m.) throughout the acclimatization period of at least 1 week. Before starvation, animals had free access to food (standard chow diet; Hope Farms, Woerden, The Netherlands) and water. The animals had always free access to water. During operation, the animals were under Nembutal anaesthesia. Animal care was performed according to the guidelines of the University of Amsterdam. Hepatocytes (5-10 mg dry mass/ml) were kept in Krebs-Henseleit bicarbonate medium containing 1.3 mM Ca^2+, 10 mM sodium Hepes (pH 7.4), 20 mM glucose and 1 mM octanoate on ice until enzyme assays. Homogenates were prepared by freezing cell suspensions in liquid nitrogen and subsequent thawing. One volume of homogenates and 10 volumes of 20 mM Tris-HCI buffer (pH 7.4) containing 1% (v/v) Triton X-100 were mixed and incubated at 4° C. under constant stirring for 60 min. One part of these homogenates was used for the determination of DPPIV activity. Another part was centrifuged (40,000 x g, 4° C., 20 min) and the supernatants were used as membrane fractions for the determination of DPPIV activity.
Analysis of DPPIV Activity
DPPIV activity was determined in hepatocytes using 6 approaches. Activity was determined in living hepatocytes with confocal scanning laser microscopy, image processing and analysis, flow cytometry, and fluorometry. Fluorometry was also used for the determination of activity in homogenates of hepatocytes and in membrane fractions of hepatocytes. Incubations were started at t=0 by adding an aliquot of 60 μl hepatocytes to 3 ml Krebs-Henseleit medium containing 0-50 μM (Ala-Pro)^2 -cresyl violet in the presence or absence of 0-50 μM Ala-Pip^p (OPh-4-Cl)2 (Enzyme Systems Products), which is a selective DPPIV inhibitor (31A,32A). Substrate and inhibitor were dissolved first in dimethylsulfoxide. The final concentration of dimethylsulfoxide in the incubation medium was 0.5% (v/v). Incubations were carried out at 20° C. Confocal scanning laser microscopy was performed after 100 μl of an assay medium containing hepatocytes was brought into a well formed by a stainless steel ring attached to a glass slide (33A). Images of cells were captured in time with a Leica confocal scanning laser microscope fitted to a Leica Fluovert inverted microscope equipped with a PL APO oil-immersion objective (63×, NA 1.40). Excitation was performed at 568 nm and fluorescence was captured at >595 nm. The pinhole aperture was set to provide an optimized image (34A). Cells were subjected to optical serial sectioning after each 60 sec of incubation up to 300 sec. Images in the X-Y plane were recorded with intervals of 0.5 μm in the Z direction. Each optical section was averaged 8 times. Images were recorded din a 512×512 pixel format. The size of each pixel represented 0.015 μm^2 in the object. Confocal data stacks of 20-30 optical sections were processed with standard Leica software package.
Image analysis was performed by transferring an aliquot of 100, μl of an incubation medium containing hepatocytes into an incubation chamber that consisted of an object glass and a cover glass separated by a spacer made of adhesion tape with a thickness of […]. The object glass was set on the stage of a fluorescencee microscope (Leitz Dialux 20, Wetzlar, Germany) with a ×25 objective (NA 0.75). A drop of medium was placed beside the cover glass and the chamber became filled by capillary forces in a few seconds. […]

[3] = Fluorescence properties of cresyl violet (image analysis calibration); format: physicochemical
Method: Calibration was performed by measuring fluorescence of a series of solutions of 0-10 μM cresyl violet in Krebs-Henseleit medium. These solutions were also used to test the properties of cresyl violet for quantitative purposes. The depth of the incubation chamber was 24 μm and the size of the area measured 240×170 μm. The total volume that was measured was thus 0.001 μl. The amount of fluorescence captured by image analysis was linearly related with concentrations up to at least 10 μM when measured in a thin film of 24 μm which approximates the diameter of cells (FIG. 2A). Thus, cresyl violet has fluorescence properties that are necessary for quantitative fluorescence microscopy (36B). On the basis of FIG. 2A, it was calculated that 100 gray values corresponded with 6.7 fmoles cresyl violet. […] Flow cytometric analysis of production of cresyl violet in hepatorcytes was performed with a FAC-Star Plus (Becton and Dickinson, San Jose, Calif., USA) using the software program CellQuest (version 1.0; Becton and Dicksinson). Prior to analysis, cells were stained with the DNA dye Hoechst 3.3.3.4.2 (36 ,μg/ml; Hoechst Holland, Amsterdam, The Netherlands) for 30 min at 0° C. Analysis was started by established forward scatter and then substrate was added at t=0. Analysis was performed at a flow rate of 200 cells/sec. The parameters measured were time, forward scatter, fluorescence of Hoechst 3.3.3.4.2 dye (excitation at 350 nm, emission at 485 nm with a band width of 20 nm), and fluorescence of cresyl violet (excitation at 514 nm, emission at 630 nm with a band width of 22 nm). Filters were obtained from Becton and Dickenson. The power of the lasers was set at […]. Fluorometric analysis with time was carried out with a Perkin-Elmer LS 50 fluorescence spectrometer (Perkin-Elmer, Gouda, The Netherlands) under continuous magnetic stirring. Cuvettes with a light path of 1 cm were used. Excitation was performed at 591 nm with a slid width of 10 nm and emission was measured at 628 nm (slid width 10 nm). The first measurement was made at 5 sec after mixing cells and incubation medium.

[4] = Water solubility (stated); format: physicochemical; details: free cresyl violet; avoids accumulation around mitochondria

inverse relationship between Km and Vmax in membrane fractions [1]: lost
Vmax in individual hepatocytes [2]: 4-16 nU
Km ([2]; hepatocytes): 6 to 22 µM
conversion rate in the rat with the highest Vmax and lowest Km vs rat with the lowest Vmax and highest Km ([2]; physiological substrate concentrations): 10- to 20 fold
SMILES: C[C@H](N)C(=O)N1CCC[C@H]1C(=O)NC1=CC2Oc3cc(NC(=O)[C@@H]4CCCN4C(=O)[C@H](C)N)ccc3N=C2c2ccccc21 (stereo partly drawn) [Ala-Pro-cresyl violet, [Ala-Pro]^2-cresyl violet]

amount corresponding with 100 gray values ([3]; image analysis calibration, FIG. 2A): 6.7 fmol
linearity of fluorescence with concentration (up to) ([3]; thin film of 24 μm, Krebs-Henseleit medium): at least 10 μM
water solubility [4]: sufficiently water soluble
SMILES: N=c1cc2oc3cc(N)ccc3nc-2c2ccccc12 [cresyl violet]
fading of fluorescence during measurements in time ([3]; FIG. 2B): Fading did not occur to any significant extent

SMILES: C[C@H](N)C(=O)N1CCCCC1P(=O)(Oc1ccc(Cl)cc1)Oc1ccc(Cl)cc1 (some centres unmarked) [Ala-Pip^p (OPh-4Cl)2, Ala-Pip^p (OPh-4-Cl)2]
Ki [2]: 7 µM
mode of inhibition of DPPIV [2]: selective competitive inhibitor
mode of inhibition of DPPIV ([2]; listed as dipeptide phosphonate inhibitor): competitively
